Reference: US11596608B2, “Formulation” (INDEX PHARMACEUTICALS AB, priority 2018, dated 2023)
Blank lines part the entries; values can stand above or below the compound they belong to. Oligonucleotides are written 5' to 3', each unit as a sugar letter and its base; * is a phosphorothioate linkage, no mark a phosphodiester; rarer units and linkages stand in square brackets, end groups in braces. Plain capitals give the bases only. d = 2'-deoxy (DNA)

Assays:
[1] = Cobitolimod suspension limit in Capryol only; format: physicochemical; settings: corresponding to 13-14% cobitolimod in Capryol PGMC
Description: The cobitolimod suspension limit in Capryol only was assessed by repeating the steps of (i) adding the API to Capryol, (ii) spatula stirring and (iii) sonication, until the suspension became unworkable due to, for example, being too viscous, agglomerates forming that would not break down etc.

[2] = Chemical stability assessment of core formulations (HPLC assay and related substances); format: physicochemical; settings: reference raw material
Description: The bulk mixes were assessed physically and chemically initially and following four weeks of storage at 40° C./75% RH. For the physical assessments, samples were assessed visually for appearance changes, focusing on colour and physical behaviour.
The samples were run on an X Bridge BEH C18, 2.5 μm, 4.6 mm×50 mm column with a flow rate of 0.4 ml/min at 60° C., a run time of 60 minutes and a detection wavelength of 260 nm. The sample injection volume was […] with a sampler temperature of 5° C. The mobile phase compositions were as follows: • Mobile phase A 3% Acetonitrile in 0.2% TEA, 1% HFIP, • Mobile phase B 12% Acetonitrile in 0.2% TEA, 1% HFIP, • Mobile phase C Acetonitrile, • Mobile phase D water.

chronic active UC = settings: cited from earlier work
[3] = observed during manufacture of Example 3 formulation
Description: The vials were then high shear mixed for a minimum of 2×2 minutes then allowed to settle, all had visible insoluble material, therefore the samples were then high shear mixed for a further 2 minutes and visually assessed before samples taken for pH analysis. pH analysis involved centrifuging the sample at 14000 RPM for 10 minutes to separate out the insoluble material and then diluting 1 g of the clear supernatant with 3 g of deionised water, mixing thoroughly and measuring the pH.

UC = settings: versus placebo; cited from earlier work

Compound: 5′-G*G*A*ACAGTTCGTCCAT*G*G*C-3′ (DNA dG*dG*dA*dAdCdAdGdTdTdCdGdTdCdCdAdT*dG*dG*dC) [cobitolimod]
limit of suspendability expressed per capsule [1]: approx. 53 mg cobitolimod/capsule | impurity level [2]: 5.3 area % | safety and tolerability (chronic active UC; human, in vivo): safe and well tolerated | clinical efficacy (chronic active UC; patients with chronic active UC): effective to induce clinical response and remission

solubility of tromethamine in Capryol PGMC [3]: some insolubility
Compound: NC(CO)(CO)CO [tromethamine]

Compound: vedolizumab: α4β7 integrin inhibitor approved for the treatment of UC
inducing and maintaining clinical response, clinical remission, and mucosal healing (UC): more effective than placebo
